“Also recorded” adds a separate entry of the source.
T1: TE-exon fusion (JET / chimeric) transcript-derived peptide, LUAD (peptide 17) peptide on HLA-A*02:01 (human)
T1 peptide: LLDRFGYHV

T2: TE-exon fusion (JET / chimeric) transcript-derived peptide, LUAD (peptide 53) peptide on HLA-A*02:01 (human)
T2 peptide: MLVTWELAL


Columns and labels:
[1] = test system: CD8+ T cells from HLA-A2+ healthy donors; assay: Priming of naive CTLs (immunogenicity assay) with two-colour tetramer staining; type: cell-based, human; conditions: for specific CD8+ T cell expansion (immunogenicity): total of 6 healthy donors, FIG. 11A; for percentage of tetramer positive cells among total CD8+ T cells compared to control: one donor, control co-culture without peptides
Experimental: Priming of naïve CTLs. […] CD14+, CD4+ and CD8+ cells were purified by positive selection using magnetic beads (Miltenyi Biotec). While CD4+ and CD8+ T cells were cryopreserved until the experiment day, CD14+ fraction was cultured in the presence of IL-4 (50 ng/mL) and GM-CSF (10 ng/mL) at 10^6 cells/mL during 5 days to obtain moDCs. After this period of time, the moDCs were maturated with LPS and incubated with synthetic ER-derived peptides at a final concentration of 1 μg/mL for 2 hours.
Tetramer Staining. Cells were resuspended in PBS, stained with Live/Dead Aqua-405 nm (ThermoFisher) during 20 minutes at 4° C. and washed once. After that, cells were resuspended in PBS-1% BSA containing the mix of SA-coupled tetramers and incubated in the dark at room temperature during 20 minutes. Without further washing, surface antibodies were added in PBS-1% BSA and cells were incubated 20 minutes in the dark at 4° C. […] Finally, cells were washed twice and resuspended in FACS buffer for flow cytometry analysis.
Priming assays were thus performed to test the ability of identified peptides to expand specific cytotoxic T cells. […] After loading the moDCs with a mix of synthetic peptides, autologous co-culture was performed with CD4+ and CD8+ T cells. Finally, the expansion of specific CD8+ T cells was analysed by flow cytometry using two-colours tetramer staining. As a control of specific expansion, the co-culture was performed in the absence of peptides.
The same experiment was performed in order to evaluate the response in additional 5 donors. […] As a positive of expansions, mutated Melan-A peptide ([…]) were used.

[2] = test system: CD8+ T cells of LUAD patients; assay: Tetramer staining of CD8+ T cells from LUAD patient samples and TILs; type: cell-based, human; conditions: TILs expanded with peptide mix + IL-2 or IL-2 only
Experimental: Tetramer Staining. Cells were resuspended in PBS, stained with Live/Dead Aqua-405 nm (ThermoFisher) during 20 minutes at 4° C. and washed once. After that, cells were resuspended in PBS-1% BSA containing the mix of SA-coupled tetramers and incubated in the dark at room temperature during 20 minutes. Without further washing, surface antibodies were added in PBS-1% BSA and cells were incubated 20 minutes in the dark at 4° C. Surface antibodies were a combination of anti-CD3-BV650+ anti-CD8-PECy7 in combination with anti-CCR7-AF700+ anti-CD45RA-BUV395 when required. Finally, cells were washed twice and resuspended in FACS buffer for flow cytometry analysis.
Tissues and Blood samples. […]
Tumor infiltrating lymphocytes (TILs) cultures. […] Cells were feed/split as necessary during 15-20 days and cryopreserve or analyzed for tetramer staining.
In a first set of experiments tumor infiltrating lymphocytes (TILs) expanded with a mix of TE-derived peptides and Il-2, or only with Il-2, were analyzed by tetramer staining. […]
In a second cohort of 5 primary, untreated, LUAD tumor, juxta-tumor, tumor-draining lymph node and blood samples from LUAD cancer HLA-A2+ patients were analyzed. […]

[3] = target: T1, TE-exon fusion (JET / chimeric) …; assay: multimer staining
[4] = target: T2, TE-exon fusion (JET / chimeric) …; assay: multimer staining

Row | Molecule | specific CD8+ T cell expansion (immunogenicity) [1] | also measured
1 | YLPYFLKSL | specific CD8+ T expansions | –
2 | ILSGYGPCV | specific CD8+ T expansions | –
3 | MLVTWELAL | specific CD8+ T expansions | –
4 | SLMQSGSPV | specific CD8+ T expansions | –
5 | LLDRFGYHV | specific CD8+ T expansions | –
6 | RLLHLESFL | specific CD8+ T expansions | percentage of tetramer positive cells among total CD8+ T cells compared to control [1]: increase in at least one magnitude order
7 | GLLNISHTA | specific CD8+ T expansions | –
8 | FLGTRVTRV | specific CD8+ T expansions | –
9 | YLQGLPLPL | specific CD8+ T expansions | –
10 | LLGETKVYV | specific CD8+ T expansions | percentage of tetramer positive cells among total CD8+ T cells compared to control [1]: increase in at least one magnitude order
11 | VLMWTMAHL | specific CD8+ T expansions | –
12 | GLPSHVELA | specific CD8+ T expansions; also recorded: immunogenic | tetramer positive CD8+ T cells in TILs of LUAD patients [2]: TILs recognizing
13 | YLWTTFFPL | specific CD8+ T expansions | percentage of tetramer positive cells among total CD8+ T cells compared to control [1]: increase in at least one magnitude order
14 | LLTSWHLYL | specific CD8+ T expansions | –
15 | RQAPGFHHA | specific CD8+ T expansions | –
16 | LLHLESFLV | specific CD8+ T expansions | –
17 | ILTASITSI | specific CD8+ T expansions | –
18 | AILPKANTV | specific CD8+ T expansions | percentage of tetramer positive cells among total CD8+ T cells compared to control [1]: increase in at least one magnitude order
19 | AMDGKELSL | specific CD8+ T expansions | –
20 | FLIVAEILI | – | percentage of tetramer positive cells among total CD8+ T cells compared to control [1]: increase in at least one magnitude order
21 | MLMKTVWQA | specific CD8+ T expansions | –
22 | ILHSLVTGV | specific CD8+ T expansions | –
23 | VLLTNTIWL | specific CD8+ T expansions | –
24 | RLADHLSFC | specific CD8+ T expansions; also recorded: immunogenic | percentage of tetramer positive cells among total CD8+ T cells compared to control [1]: increase in at least one magnitude order
25 | TCR number 1 (Table 4bis) (TCR) alpha TRAV41*01 TRAJ34*01 CDR3: CAVLLDNTDKLIF beta TRBV6-5*01 TRBJ-2*01 CDR3: CASSRLQGALELFF | – | binding result [3]: recognises
26 | TCR number 4 (Table 4bis) (TCR) alpha TRAV35*01 TRAJ54*01 CDR3: CAGQLAGAQKLVF beta TRBV13*01 TRBJ2-5*01 CDR3: CASSPSRDGQETQYF | – | binding result [4]: recognises

From patent US20250352577A1, “TUMOR NEOANTIGENIC PEPTIDES AND USES THEREOF” (MNEMO THERAPEUTICS, priority 2021, published 2025)
